The target in test [1] is KRas G12C (Homo sapiens, UniProt P01116, C118S/C51S/C80L/G12C). Kind of test: KRas G12C Modification Assay (LCMS detection of covalent adduct). In kind it is binding. The protocol: A 10 μL aliquot of each protein solution was then transferred to a 384 well microtiter plate. Initial compound stocks were generated at fifty times their desired final assay concentration in DMSO.
Exemplary compounds of Formula (I) were diluted 25-fold into K-Ras Assay Buffer to a final of two times their final concentration. A 10 μL aliquot of each diluted compound solution was then added to each of the protein solutions in the microtiter plate to initiate reaction. […] At each time point, the reactions were quenched with 20 μL of a 25 mM acetic acid solution. […] Once all reactions were quenched, the plates were heat sealed and the samples were injected into a LC/MS system for data acquisition.
Samples were injected in their liquid phase onto a C-3 reverse phase column to remove assay buffer and prepare the samples for mass spectrometer. The proteins were eluted from the column using an acetonitrile gradient and fed directly into the mass analyzer. Initial raw data analysis took place in Agilent MassHunter software immediately post data acquisition.
Raw data analysis of the intact protein was exclusively a deconvolution of the multiple charge states of each protein in solution using a maximum entropy deconvolution provided in Mass Hunter. To minimize complexity, only the data over limited mass ranges were considered for analysis, with a minimum of one Dalton mass step intervals. The heights of all masses identified during raw data analysis were exported to be further analyzed in Spotfire® data analysis software.
Final data analysis was a multistep process in the Spotfire® data analysis software package. Briefly, each protein mass was calculated as a percent of the total signal of that sample, that percentage was then normalized to the percentage of signal of the protein in the absence of reactive compounds. Those normalized signals were reported as normalized percent of control (POC). […] Key: “A”≤25% POC; “B”>25% POC-≤50% POC; “C”>50% POC and ND=not determined.

Test [2] deals with KRas G12C (Homo sapiens, UniProt P01116, G12C). Briefly: Cellular inhibition of KRas G12C measured by Phospho-ERK in NCI-H358 cells. The class given is cell-based. In short, it runs like this:
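NCI-H358 cells treated 3 h with compound (0.5% DMSO final), then fixed and methanol-permeabilised. In-cell immunofluorescence measured pERK(Thr202/Tyr204) normalised to GAPDH as percent of DMSO control. IC50 from a 4-parameter dose-response fit.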

[3] abbreviates: normalized percent of control, 5 μM concentration for 3 hours.
Where [4] appears, read: pERK(Thr202/Tyr204) normalized with GAPDH, NCI-H358 cells, 3 hours, read-out: IC50.

SMILES strings stand for the structures. pIC50: −log10 of the molar value. Like-named read-outs stand apart in the source and are kept apart here. Where only a bound is given, the exact number is not on record here.

As to `N#CC[C@H]1CN(c2nc(OCCCN3C[C@@H]4C[C@H]3CO4)nc3c2CCN(c2cccc4cccc(Cl)c24)C3)CCN1C(=O)/C=C/CF` [Example 585, 2-((S)-4-(2-(3-((1S,4S)-2-oxa-5-azabicyclo[2.2.1]heptan-5-yl)propoxy)-7-(8-chloronaphthalen-1-yl)-5,6,7,8-tetrahydropyrido[3,4-d]pyrimidin-4-yl)-1-((E)-4-fluorobut-2-enoyl)piperazin-2-yl)acetonitrile], the POC entry in test [1] (setting [3]) was “C (“C”>50% POC)”. In addition, the pIC50 – broadly, −log10 of the IC50, conventionally taken in molar units – in test [2] (setting [4]) is 6.00 to 10.00.
For the compound `C=C(F)C(=O)N1CCN(c2nc(OC[C@@H]3CCN(C)C3)nc3c2CCN(c2cccc4cccc(C)c24)C3)C[C@@H]1CC#N` [Example 562, 2-[(2S)-1-(2-Fluoroprop-2-enoyl)-4-[7-(8-methyl-1-naphthyl)-2-[[(3R)-1-methylpyrrolidin-3-yl]methoxy]-6,8-dihydro-5H-pyrido[3,4-d]pyrimidin-4-yl]piperazin-2-yl]acetonitrile], in test [1] (setting [3]), the POC result is on record as “C (“C”>50% POC)”. The negative logarithm of the IC50 (pIC50) in test [2] (setting [4]) was 6.00 to 10.00.
As for `C=C(F)C(=O)N1CCN(c2nc(OC[C@@H]3CCN(C)C3)nc3c2CCN(c2cccc4cccc(Cl)c24)C3)C[C@@H]1CC#N` [Example 575, 2-[(2S)-4-[7-(8-Chloro-1-naphthyl)-2-[[(3R)-1-methylpyrrolidin-3-yl]methoxy]-6,8-dihydro-5H-pyrido[3,4-d]pyrimidin-4-yl]-1-(2-fluoroprop-2-enoyl)piperazin-2-yl]acetonitrile], the POC result in test [1] (setting [3]) is given as “C (“C”>50% POC)”. In addition, the pIC50 in test [2] (setting [4]) is 6.00 to 10.00.
Take `C=CC(=O)N1CCN(c2nc(OC[C@@H]3CCCN3C)nc3c2CCN(c2c(C)ccc4[nH]ncc24)C3)CC1` [Example 155, (S)-1-(4-(7-(5-methyl-1H-indazol-4-yl)-2-((1-methylpyrrolidin-2-yl)methoxy)-5,6,7,8-tetrahydropyrido[3,4-d]pyrimidin-4-yl)piperazin-1-yl)prop-2-en-1-one]: the POC entry in test [1] (5 µM) was “C (key: “A”≤25% POC; “B”>25% POC-≤50% POC; “C”>50% POC)”. Moreover, the pIC50 in test [2] (setting [4]) was 6.00 to 10.00.
The matching figures for `C=CC(=O)N1CCN(c2nc(OCCCN3CCOCC3)nc3c2CCN(c2c(F)c(O)cc4ccccc24)C3)CC1` [Example 165, 1-[4-[7-(2-fluoro-3-hydroxy-1-naphthyl)-2-(3-morpholinopropoxy)-6,8-dihydro-5H-pyrido[3,4-d]pyrimidin-4-yl]piperazin-1-yl]prop-2-en-1-one]: “C (key: “A”≤25% POC; “B”>25% POC-≤50% POC; “C”>50% POC)” and below 6.00.
As for `C=CC(=O)N1CCN(c2nc(OCCCN3CCOCC3)nc3c2CCN(c2c(C)c(O)cc4ccccc24)C3)CC1` [Example 173, 1-(4-(7-(3-hydroxy-2-methylnaphthalen-1-yl)-2-(3-morpholinopropoxy)-5,6,7,8-tetrahydropyrido[3,4-d]pyrimidin-4-yl)piperazin-1-yl)prop-2-en-1-one], the POC result in test [1] (setting [3]) is on record as “C (“C”>50% POC)”. In addition, in test [2] (setting [4]), the pIC50 is below 6.00.
For `C=CC(=O)N1CCN(c2nc(OCCN(C)C)nc3c2CCN(c2cc(O)cc4ccccc24)C3)CC1CCO` (stereo not drawn) [Example 171, 1-(4-(2-(2-(dimethylamino)ethoxy)-7-(3-hydroxynaphthalen-1-yl)-5,6,7,8-tetrahydropyrido[3,4-d]pyrimidin-4-yl)-2-(2-hydroxyethyl)piperazin-1-yl)prop-2-en-1-one], the POC result in test [1] (5 µM) is listed as “C (key: “A”≤25% POC; “B”>25% POC-≤50% POC; “C”>50% POC)”. The compound also had a pIC50 in test [2] (IC50) below 6.00.
`C=CC(=O)N1CCN(c2nc(OC[C@H]3CCN(C)C3)nc3c2CCN(c2cccc4ccccc24)C3)CC1CC#N` (stereo partly drawn) [Example 399, 2-(1-acryloyl-4-(2-(((S)-1-methylpyrrolidin-3-yl)methoxy)-7-(naphthalen-1-yl)-5,6,7,8-tetrahydropyrido[3,4-d]pyrimidin-4-yl)piperazin-2-yl)acetonitrile]: the POC entry in test [1] (setting [3]) is reported as “C (“C”>50% POC)”. In addition, in test [2] (setting [4]), the negative logarithm of the IC50 (pIC50) is 6.00 to 10.00.
On the same counts, the results for `C=C(F)C(=O)N1CCN(c2nc(OCCCN3C[C@@H]4C[C@H]3CO4)nc3c2CCN(c2cccc4cccc(C)c24)C3)C[C@@H]1CC#N` [Example 566, 2-[(2S)-1-(2-Fluoroprop-2-enoyl)-4-[7-(8-methyl-1-naphthyl)-2-[3-[(1S,4S)-2-oxa-5-azabicyclo[2.2.1]heptan-5-yl]propoxy]-6,8-dihydro-5H-pyrido[3,4-d]pyrimidin-4-yl]piperazin-2-yl]acetonitrile] are “C (“C”>50% POC)” and 6.00 to 10.00.
As for `[2H]C([2H])=C([2H])C(=O)N1CCN(c2nc(OC[C@@H]3CCCN3C)nc3c2CCN(c2cccc4ccccc24)C3)C[C@@H]1CC#N` [Example 475, 2-[(2S)-4-[2-[[(2S)-1-methylpyrrolidin-2-yl]methoxy]-7-(1-naphthyl)-6,8-dihydro-5H-pyrido[3,4-d]pyrimidin-4-yl]-1-(2,3,3-trideuterioprop-2-enoyl)piperazin-2-yl]acetonitrile], in test [1] (setting [3]), the POC entry is reported as “C (“C”>50% POC)”. In test [2] (setting [4]), the negative-log IC50 (pIC50) is 6.00 to 10.00.
The matching figures for `C=C(F)C(=O)N1CCN(c2nc(OC[C@@H]3C[C@@H](OC)CN3C)nc3c2CCN(c2cccc4cccc(C)c24)C3)C[C@@H]1CC#N` [Example 561, 2-[(2S)-1-(2-Fluoroprop-2-enoyl)-4-[2-[[(2S,4R)-4-methoxy-1-methyl-pyrrolidin-2-yl]methoxy]-7-(8-methyl-1-naphthyl)-6,8-dihydro-5H-pyrido[3,4-d]pyrimidin-4-yl]piperazin-2-yl]acetonitrile]: “C (“C”>50% POC)” and 6.00 to 10.00.
Take `C=C(F)C(=O)N1CCN(c2nc(OC[C@@H]3C[C@@H](F)CN3C)nc3c2CCN(c2cccc4cccc(C)c24)C3)C[C@@H]1CC#N` [Example 560, 2-[(2S)-4-[2-[[(2S,4R)-4-Fluoro-1-methyl-pyrrolidin-2-yl]methoxy]-7-(8-methyl-1-naphthyl)-6,8-dihydro-5H-pyrido[3,4-d]pyrimidin-4-yl]-1-(2-fluoroprop-2-enoyl)piperazin-2-yl]acetonitrile]: in test [1] (setting [3]), the POC result was “C (“C”>50% POC)”. In addition, the negative logarithm of the IC50 (pIC50) in test [2] (setting [4]) was 6.00 to 10.00.
As for `C=C(F)C(=O)N1CCN(c2nc(OC[C@@H]3CCCN3C)nc3c2CCN(c2cncc(Cl)c2C(F)(F)F)C3)C[C@@H]1CC#N` [Example 600, 2-((S)-4-(7-(5-Chloro-4-(trifluoromethyl)pyridin-3-yl)-2-(((S)-1-methylpyrrolidin-2-yl)methoxy)-5,6,7,8-tetrahydropyrido[3,4-d]pyrimidin-4-yl)-1-(2-fluoroacryloyl)piperazin-2-yl)acetonitrile], in test [1] (setting [3]), the POC result is listed as “C (“C”>50% POC)”. Further, the negative logarithm of the IC50 (pIC50) in test [2] (setting [4]) is 6.00 to 10.00.
Consider `C=C(F)C(=O)N1CCN(c2nc(OC[C@@H]3CCC(=O)N3C)nc3c2CCN(c2cccc4cccc(Cl)c24)C3)C[C@@H]1CC#N` [Example 572, 2-[(2S)-4-[7-(8-Chloro-1-naphthyl)-2-[[(2S)-1-methyl-5-oxo-pyrrolidin-2-yl]methoxy]-6,8-dihydro-5H-pyrido [3,4-d]pyrimidin-4-yl]-1-(2-fluoroprop-2-enoyl)piperazin-2-yl] acetonitrile], for which the POC entry in test [1] (setting [3]) is given as “C (“C”>50% POC)”. Also, the negative-log IC50 (pIC50) in test [2] (setting [4]) was below 6.00.
On the same counts, the results for `C=CC(=O)N1CCN(c2nc(OCCCN3CCOCC3)nc3c2CCN(c2cc(O)cc4cc(C)[nH]c24)C3)CC1` [Example 167, 1-(4-(7-(5-hydroxy-2-methyl-1H-indol-7-yl)-2-(3-morpholinopropoxy)-5,6,7,8-tetrahydropyrido[3,4-d]pyrimidin-4-yl)piperazin-1-yl)prop-2-en-1-one] are “B (“B”>25% POC-≤50% POC)” and below 6.00.

Values taken from patent publication US10689377B2 (Mirati Therapeutics, Inc., priority 2017, dated 2020).
